From patent US20090304607A1, “Antibacterial Flavor and Fragance Composition and Halitosis-Inhibition Flavor and Fragrance Composition and Oral Care Composition Containing the Same” (TAKASAGO INTERNATIONAL CORPORATION, priority 2002, published 2009) come the findings set out here.

Bounds are passed on as bounds.

Assay [1] deals with Fusobacterium nucleatum JCM 6328 (Fn-1). The experiment in a line: Bactericidal activity, CFU measuring method per Quantitative Suspension Test (EN 1276). It is filed as cell-based. The following applies: for Results of Judgment 30 sec (Log decrease of number of bacteria vs control): 30 sec contact; for Results of Judgment 1 min (Log decrease of number of bacteria vs control): 1 min contact. The protocol:
The strain used in the bactericidal activity was obtained from The Institute of Physical and Chemical Research which was known to be a pathogen of periodontal disease and also known to produce volatile sulfides.
Fn-1 was cultured on slants of GAM medium (Nissui Pharmaceutical Co. Ltd.) and added physical saline to make a cell suspension. In detail, to each slant cultured at 37° C. for 24 hours under an anaerobic condition using BBL gas-pack anaerobic system, 2 ml of physiological saline was added and scraped off the microbes with a transfer loop to make a cell suspension. This operation was repeated twice, and the combined suspension was centrifugalized, added again a half amount of physiological saline to the precipitate to make the suspension. The suspension was filtered through two sheets of sterile gauze to remove agar pieces and fibrous cells. The filtrate was centrifugalized again, the precipitate was re-suspended in physiological saline to use for the tests.
As for test solutions, fragrance samples were dissolved in equal weight of dimethylformamide (DMF) and were diluted with ethanol to necessary concentrations (volume/volume).
Each test solution (30 μl) was added to sterile distilled water and stirred or subjected to ultrasonic treatment to dissolve sample or to form a homogeneous suspension.
To each solution or homogeneous suspension, 333 μl of previous cell suspension of Fn-1 was added and stirred. After 30 seconds and 1 minute, each 333 μl was added to 3 ml of D/E Neutralization broth (DIFCO) (10 fold dilution), 100 fold and 1000 fold dilution liquids were made similarly. Each 50 μl of the liquid was spread on 15 ml of Trypticase soy agar plates using Autoplate 4000 (Spiral Biotec Co. Ltd., MD, USA) and were cultivated at 37° C. for 40 hours under anaerobic condition. After the cultivation, colonies were counted by Q-Count (Spiral Biotec Co. Ltd., MD, USA) to determine CFU/ml.
Suspension, as a control, consisted of 3 ml of water and 333 μl of the cell suspension, and also suspension as a reference, consisted of 3 ml of water, 30 μl of ethanol and 333 μl of the cell suspension was employed to determine CFU/ml thereof.
“30 sec” and “1 min” were shown the sampling time, and “Log inc.” was shown the mean Log value of the control.

For assay [2], the system named is volatile sulfide production from saliva. The experiment in a line: Inhibition of volatile sulfide production from saliva (anaerobic culture, FPD-GC of head space). It is filed as cell-based. The following applies: saliva cultured 37° C. 3 hours under nitrogen. The protocol:
A test of inhibitory activity of the fragrance materials on volatile sulfide production from saliva was carried out according to the following method. Saliva was collected in a 50 ml of sterile centrifuge tube from testee without brushing teeth in the morning between 9 to 10 o'clock, and was cooled on ice until use. Each of 2 ml of the saliva was put into sterile test tube with screw cap aseptically. Saliva only was used as control and that mixed with 20 μl of ethanol was used as reference.
After the addition of samples, the inner air was replaced nitrogen in a stream of nitrogen gas at 0.5 atm under stirring with a voltex mixer. Cultivation was carried out at 37° C. for 3 hours and cooled on ice until use. Volatile sulfides were analyzed by a gas chromatograph (FPD-GC) with a flame photometer. In this connection, the samples after the culture were stored in ice-water until their analysis.
Column: 6 m×4 mm i.d. (glass packed column) Column liquid phase: 20% DNP on 80/100 mesh Chromosorb W AW DMCS Column temperature: 100° C. Carrier gas (flow rate): N2 (40 ml/min) Injection temperature: 120° C. Detector: FPD (flame photometric detector; fitted with 393 nm filter for sulfur compound detection) Detector temperature: 150° C.
The inhibition rate of methyl mercaptan was determined according to the following equation:
Inhibition rate (%) of methyl mercaptan={(Blank−Sample)/Blank}×100
Blank and Sample in the equation represent the quantities of producing methyl mercaptan in respective cases. […]

Where [3] appears, read: 1000 ppm, read-out: CH3SH Inhib. %.
Where [4] appears, read: 500 ppm, read-out: CH3SH Inhib. %.
The mark [5] stands for this setting: 100 ppm, read-out: CH3SH Inhib. %.

Consider `CC(C)c1cccc(=O)c(O)c1` [Hinokitiol], for which, in assay [1] (1000 ppm), the “Results of Judgment 30 sec (Log decrease of number of bacteria vs control)” value is greater than 5.24 Log and the “Results of Judgment 1 min (Log decrease of number of bacteria vs control)” value was greater than 5.24 Log. Further, the inhibition at 1000 ppm in assay [2] (setting [3]) came out at 100%. On to `C=CCc1ccc(O)c(OC)c1` [Eugenol], for which the inhibition at 500 ppm in assay [2] (setting [4]) was 100%. The same measure, in the same setting: the same measure for `CC(C)=CCCC(C)=CC=O` [Citral]: 100%. For the compound `CC(C)[C@@H]1CC[C@@H](C)C[C@H]1OCC(O)CO` (stereo partly shown) [Menthoxypropanediol], the “CH3SH Inhib. %” value in assay [2] (1000 ppm) was 100%. For the compound `C=C(C)[C@H]1CC=C(C)CC1` [d-Limonene], in assay [1] (500 ppm), the “Results of Judgment 30 sec (Log decrease of number of bacteria vs control)” value is recorded as 0.93 Log and the “Results of Judgment 1 min (Log decrease of number of bacteria vs control)” value is recorded as 1.50 Log. The “CH3SH Inhib. %” value in assay [2] (3000 ppm) is given as 100%. As to `CC(C)=CCCC(C)=CCCC(C)=CCO` [Farnesol], in assay [1] (100 ppm), the “Results of Judgment 30 sec (Log decrease of number of bacteria vs control)” value came to 3.70 Log and the “Results of Judgment 1 min (Log decrease of number of bacteria vs control)” value is given as greater than 4.18 Log. In addition, the inhibition at 100 ppm in assay [2] (setting [5]) stood at 100%. As for L-Carvone, in assay [2] (1000 ppm), the “CH3SH Inhib. %” value is 100%. As to `CC1=CCC(=C(C)C)CC1` [Terpinolene], in assay [1] (100 ppm), the “Results of Judgment 30 sec (Log decrease of number of bacteria vs control)” value came to 1.16 Log and the “Results of Judgment 1 min (Log decrease of number of bacteria vs control)” value turned out to be 1.63 Log. The inhibition at 100 ppm in assay [2] (setting [5]) came out at 36%.

For the compound `CCCCCCC1CCC(=O)O1` (stereo not shown) [γ-Decalactone], the “CH3SH Inhib. %” value in assay [2] (100 ppm) is 59%. As for `CCCc1ccc(O)c(OC)c1` [Dihydroeugenol], in assay [1] (2000 ppm), the “Results of Judgment 30 sec (Log decrease of number of bacteria vs control)” value is on record as greater than 3.42 Log and the “Results of Judgment 1 min (Log decrease of number of bacteria vs control)” value is greater than 3.42 Log. The “CH3SH Inhib. %” value in assay [2] (2000 ppm) came out at 100%. Turning to `CCCCCC(C=O)=Cc1ccccc1` [α-Amylcinnamicaldehyde], in assay [2] (500 ppm), the “CH3SH Inhib. %” value was determined as 99%. Take `COC(/C=C/c1ccccc1)OC` [Cinnamicaldehyde dimethyl acetal]: the “CH3SH Inhib. %” value in assay [2] (1000 ppm) stood at 100%. On to `COC(=O)c1ccccc1O` [Methyl salicylate], for which the inhibition at 1000 ppm in assay [2] (setting [3]) is 100%. `CC1(C)C[C@H]2[C@H]1CC[C@]1(C)CCC[C@@]2(O)C1` [Caryophyllene alcohol]: in assay [1] (500 ppm), the “Results of Judgment 30 sec (Log decrease of number of bacteria vs control)” value stood at 1.13 Log and the “Results of Judgment 1 min (Log decrease of number of bacteria vs control)” value amounted to 2.25 Log. The “CH3SH Inhib. %” value in assay [2] (500 ppm) came to 100%.

In the case of `C=CCOC(=O)CCCCCC` [Allyl enanthate], the inhibition at 1000 ppm in assay [2] (setting [3]) stood at 100%. The same measure, in the same setting: the same measure for `CCOC(=O)c1ccccc1O` [Ethyl salicylate]: 100%. Regarding `C=CC(C)(CCC=C(C)C)OC(C)=O` (stereo not shown) [Linalyl acetate], the inhibition at 500 ppm in assay [2] (setting [4]) is 43%. On to `CC1=CCC(C(C)C)=CC1` [γ-Terpinene], for which, in assay [1] (500 ppm), the “Results of Judgment 30 sec (Log decrease of number of bacteria vs control)” value is reported as 0.94 Log and the “Results of Judgment 1 min (Log decrease of number of bacteria vs control)” value came to 1.26 Log. Moreover, in assay [2] (setting [4]), the inhibition at 500 ppm worked out at 66%. The matching figures for `CC=Cc1ccc(O)c(OC)c1` [Isoeugenol]: greater than 3.93 Log, greater than 3.93 Log and 100%.

For `Cc1ccc(C(C)C)c(O)c1` [Thymol], in assay [2] (300 ppm, read-out: CH3SH Inhib. %), the inhibition at 300 ppm came out at 100%. With `CC1CCC(C(C)C)C(O)C1` (stereo not shown) [Menthol], the inhibition at 3000 ppm in assay [2] (3000 ppm, read-out: CH3SH Inhib. %) was found to be 100%. `C=C1CCC2CC1C2(C)C` (stereo not drawn) [β-Pinene]: in assay [1] (500 ppm), the “Results of Judgment 30 sec (Log decrease of number of bacteria vs control)” value is 0.71 Log and the “Results of Judgment 1 min (Log decrease of number of bacteria vs control)” value came out at 1.12 Log. Also, in assay [2] (setting [4]), the inhibition at 500 ppm stood at 59%. Consider `O=C/C=C/c1ccccc1` [Cinnamicaldehyde], for which, in assay [1] (2000 ppm), the “Results of Judgment 30 sec (Log decrease of number of bacteria vs control)” value is recorded as greater than 3.42 Log and the “Results of Judgment 1 min (Log decrease of number of bacteria vs control)” value was greater than 3.42 Log. In addition, the inhibition at 2000 ppm in assay [2] (2000 ppm, read-out: CH3SH Inhib. %) stood at 100%.

For `COc1ccccc1C=CC=O` [o-Methoxycinnamicaldehyde], in assay [1] (1000 ppm), the “Results of Judgment 30 sec (Log decrease of number of bacteria vs control)” value was 2.61 Log and the “Results of Judgment 1 min (Log decrease of number of bacteria vs control)” value came to 3.85 Log. The “CH3SH Inhib. %” value in assay [2] (1000 ppm) worked out at 100%.

Turning to `CC(C)=CCC/C(C)=C/CCC(C)CCO` (stereo not shown) [Dihydrofarnesol], in assay [1] (300 ppm), the “Results of Judgment 30 sec (Log decrease of number of bacteria vs control)” value was greater than 3.42 Log and the “Results of Judgment 1 min (Log decrease of number of bacteria vs control)” value is listed as greater than 3.42 Log. The “CH3SH Inhib. %” value in assay [2] (300 ppm) is on record as 100%.

On to `CCCCCCCC1CCC(=O)O1` (stereo not shown) [γ-Undecalactone], for which the “CH3SH Inhib. %” value in assay [2] (100 ppm) is reported as 70%. `C=CCOC(=O)CCC1CCCCC1` [Allyl cyclohexylpropionate]: the “CH3SH Inhib. %” value in assay [2] (500 ppm) worked out at 92%. As for `CCCCCC=O` [Hexylaldehyde], the “CH3SH Inhib. %” value in assay [2] (300 ppm) came out at 82%.
